From patent US10336732B2, “1-heterocyclyl isochromanyl compounds and analogs for treating CNS disorders” (Sunovion Pharmaceuticals Inc., priority 2015, dated 2019) come the findings set out here.

The experiment has as its system mice. In words: Neuropharmacological assay (SmartCube), behavioral signature of compound-treated mice. It is filed as in vivo. The note with it: i.p. 15 min before behavioral test, most efficacious dose(s) of 3 doses. In outline: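 Mice received compound i.p. in NMP/PEG/propylene glycol vehicle at 3 doses, 15 min before testing. Video-captured behavior was algorithmically compared with a reference-drug signature database.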
For the compound `Fc1ccc2c(c1)[C@@H]([C@@H]1CCCN1)OCCC2` [Compound I-106, (S)-2-((S)-8-fluoro-1,3,4,5-tetrahydrobenzo[c]oxepin-1-yl)pyrrolidine], the “AD: ADHD (probability that behavioral signature matches class)” value (shortened to “AD: ADHD”) is recorded as “+ (LOQ ≤ + <5%)”, the “AG: analgesic (probability that behavioral signature matches class)” value (from here on “AG: analgesic”) is “++ (5% ≤ ++ <25%)”, the “AX: anxiolytic (probability that behavioral signature matches class)” value (from here on “AX: anxiolytic”) was “++ (5% ≤ ++ <25%)” and the “CE: cognitive enhancer (probability that behavioral signature matches class)” value (shortened to “CE: cognitive enhancer”) is “+++ (25% ≤ +++ <50%)”. For the same compound, the “DP: anti-depressant (probability that behavioral signature matches class)” value (“DP: anti-depressant” below) was “+ (LOQ ≤ + <5%)”, the “HA: hallucinogen (probability that behavioral signature matches class)” value (shortened to “HA: hallucinogen”) is recorded as “+ (LOQ ≤ + <5%)”, the “MS: mood stabilizer (probability that behavioral signature matches class)” value (from here on “MS: mood stabilizer”) is reported as “+ (LOQ ≤ + <5%)” and the “PS: anti-psychotic (probability that behavioral signature matches class)” value (“PS: anti-psychotic” below) is on record as “++ (5% ≤ ++ <25%)”. The “SD: sedative hypnotic (probability that behavioral signature matches class)” value (from here on “SD: sedative hypnotic”) is on record as “+ (LOQ ≤ + <5%)”, the “UN: uncharacterized CNS activity (probability that behavioral signature matches class)” value (from here on “UN: uncharacterized CNS activity”) is reported as “+ (LOQ ≤ + <5%)” and the “XG: anxiogenic (probability that behavioral signature matches class)” value (“XG: anxiogenic” for short) was “+ (LOQ ≤ + <5%)”.

Consider `Fc1ccc2c(c1)[C@H]([C@@H]1CCCN1)OCCC2` [Compound I-107, (S)-2-((R)-8-fluoro-1,3,4,5-tetrahydrobenzo[c]oxepin-1-yl)pyrrolidine], for which the “AD: ADHD” value is “+ (LOQ ≤ + <5%)”, the “AG: analgesic” value was “++ (5% ≤ ++ <25%)”, the “AX: anxiolytic” value is listed as “+++ (25% ≤ +++ <50%)” and the “CE: cognitive enhancer” value is listed as “++ (5% ≤ ++ <25%)”. Besides, the “DP: anti-depressant” value is listed as “++ (5% ≤ ++ <25%)”, the “HA: hallucinogen” value is given as “+ (LOQ ≤ + <5%)”, the “MS: mood stabilizer” value is listed as “++ (5% ≤ ++ <25%)” and the “PS: anti-psychotic” value was “+++ (25% ≤ +++ <50%)”. Further, the “SD: sedative hypnotic” value is “++ (5% ≤ ++ <25%)”, the “UN: uncharacterized CNS activity” value was “++ (5% ≤ ++ <25%)” and the “XG: anxiogenic” value was “+ (LOQ ≤ + <5%)”.

Turning to `Fc1ccc2c(c1)[C@@H]([C@H]1CCCN1)OCCC2` [Compound I-108, (R)-2-((S)-8-fluoro-1,3,4,5-tetrahydrobenzo[c]oxepin-1-yl)pyrrolidine], the “AD: ADHD” value is “+ (LOQ ≤ + <5%)”, the “AG: analgesic” value is recorded as “++ (5% ≤ ++ <25%)”, the “AX: anxiolytic” value is given as “++ (5% ≤ ++ <25%)” and the “CE: cognitive enhancer” value is reported as “++ (5% ≤ ++ <25%)”. Further, the “DP: anti-depressant” value is “++ (5% ≤ ++ <25%)”, the “HA: hallucinogen” value is reported as “+ (LOQ ≤ + <5%)”, the “MS: mood stabilizer” value is reported as “+ (LOQ ≤ + <5%)” and the “PS: anti-psychotic” value is recorded as “+++ (25% ≤ +++ <50%)”. Further, the “SD: sedative hypnotic” value is on record as “++ (5% ≤ ++ <25%)”, the “UN: uncharacterized CNS activity” value is “++ (5% ≤ ++ <25%)” and the “XG: anxiogenic” value is recorded as “+ (LOQ ≤ + <5%)”.

For the compound `Fc1ccc2c(c1)[C@H]([C@H]1CCCN1)OCCC2` [Compound I-109, (R)-2-((R)-8-fluoro-1,3,4,5-tetrahydrobenzo[c]oxepin-1-yl)pyrrolidine], the “AD: ADHD” value was “+ (LOQ ≤ + <5%)”, the “AG: analgesic” value is reported as “++ (5% ≤ ++ <25%)”, the “AX: anxiolytic” value is on record as “++ (5% ≤ ++ <25%)” and the “CE: cognitive enhancer” value is “+ (LOQ ≤ + <5%)”. For the same compound, the “DP: anti-depressant” value is reported as “+++ (25% ≤ +++ <50%)”, the “HA: hallucinogen” value is given as “+ (LOQ ≤ + <5%)”, the “MS: mood stabilizer” value is given as “++ (5% ≤ ++ <25%)” and the “PS: anti-psychotic” value is “++ (5% ≤ ++ <25%)”. The “SD: sedative hypnotic” value is listed as “++ (5% ≤ ++ <25%)”, the “UN: uncharacterized CNS activity” value is “++ (5% ≤ ++ <25%)” and the “XG: anxiogenic” value is reported as “+ (LOQ ≤ + <5%)”.

In the case of `Fc1ccc2c(c1)CCCO[C@@H]2[C@@H]1CCCN1` [Compound I-110, (S)-2-((S)-7-fluoro-1,3,4,5-tetrahydrobenzo[c]oxepin-1-yl)pyrrolidine], the “AD: ADHD” value is “+ (LOQ ≤ + <5%)”, the “AG: analgesic” value was “++ (5% ≤ ++ <25%)”, the “AX: anxiolytic” value was “++ (5% ≤ ++ <25%)” and the “CE: cognitive enhancer” value is listed as “++ (5% ≤ ++ <25%)”. Moreover, the “DP: anti-depressant” value is given as “++ (5% ≤ ++ <25%)”, the “HA: hallucinogen” value is “+ (LOQ ≤ + <5%)”, the “MS: mood stabilizer” value is “+ (LOQ ≤ + <5%)” and the “PS: anti-psychotic” value is listed as “++++ (50% ≤ ++++)”. For the same compound, the “SD: sedative hypnotic” value is on record as “++ (5% ≤ ++ <25%)”, the “UN: uncharacterized CNS activity” value is recorded as “+++ (25% ≤ +++ <50%)” and the “XG: anxiogenic” value was “+ (LOQ ≤ + <5%)”.

Turning to `Fc1ccc2c(c1)CCCO[C@H]2[C@@H]1CCCN1` [Compound I-111, (S)-2-((R)-7-fluoro-1,3,4,5-tetrahydrobenzo[c]oxepin-1-yl)pyrrolidine], the “AD: ADHD” value is on record as “+ (LOQ ≤ + <5%)”, the “AG: analgesic” value is listed as “++ (5% ≤ ++ <25%)”, the “AX: anxiolytic” value was “++ (5% ≤ ++ <25%)” and the “CE: cognitive enhancer” value is recorded as “++ (5% ≤ ++ <25%)”. Moreover, the “DP: anti-depressant” value is “++ (5% ≤ ++ <25%)”, the “HA: hallucinogen” value is on record as “+ (LOQ ≤ + <5%)”, the “MS: mood stabilizer” value is “+ (LOQ ≤ + <5%)” and the “PS: anti-psychotic” value is given as “++++ (50% ≤ ++++)”. The “SD: sedative hypnotic” value was “++ (5% ≤ ++ <25%)”, the “UN: uncharacterized CNS activity” value is given as “+++ (25% ≤ +++ <50%)” and the “XG: anxiogenic” value was “+ (LOQ ≤ + <5%)”.

As for `Fc1ccc2c(c1)CCCO[C@@H]2[C@H]1CCCN1` [Compound I-112, (R)-2-((S)-7-fluoro-1,3,4,5-tetrahydrobenzo[c]oxepin-1-yl)pyrrolidine], the “AD: ADHD” value was “+ (LOQ ≤ + <5%)”, the “AG: analgesic” value is on record as “+ (LOQ ≤ + <5%)”, the “AX: anxiolytic” value was “++ (5% ≤ ++ <25%)” and the “CE: cognitive enhancer” value is recorded as “++ (5% ≤ ++ <25%)”. For the same compound, the “DP: anti-depressant” value was “++ (5% ≤ ++ <25%)”, the “HA: hallucinogen” value is on record as “+ (LOQ ≤ + <5%)”, the “MS: mood stabilizer” value is recorded as “+ (LOQ ≤ + <5%)” and the “PS: anti-psychotic” value is recorded as “+++ (25% ≤ +++ <50%)”. The “SD: sedative hypnotic” value is “+ (LOQ ≤ + <5%)”, the “UN: uncharacterized CNS activity” value is reported as “+ (LOQ ≤ + <5%)” and the “XG: anxiogenic” value is “+ (LOQ ≤ + <5%)”.
